What all share (assay type): biochemical
The target of assay [1] is PDE1A (Homo sapiens, UniProt P54750). The assay can be described thus: PDE1 inhibition assay (PDE1A). The following applies: 15 nM tritium labelled cAMP, SPA. As for the experimental part:
(§1) PDE1A, PDE1B and PDE1C assays were performed as follows: the assays were performed in 60 μL samples containing a fixed amount of the PDE1 enzyme (sufficient to convert 20-25% of the cyclic nucleotide substrate), a buffer (50 mM HEPES (4-(2-hydroxyethyl)-1-piperazineethanesulfonic acid) pH 7.6; 10 mM MgCl2; 0.02% Tween20), 0.1 mg/ml BSA (bovine serum albumin), 15 nM tritium labelled cAMP and varying amounts of inhibitors. Reactions were initiated by addition of the cyclic nucleotide substrate, and reactions were allowed to proceed for 1 hr at room temperature before being terminated through mixing with 20 μL (0.2 mg) yttrium silicate SPA beads (PerkinElmer). The beads were allowed to settle for 1 hour in the dark before the plates were counted in a Wallac 1450 Microbeta counter. The measured signals were converted to activity relative to an uninhibited control (100%) and IC50 values were calculated using XlFit (model 205, IDBS).

The target of assay [2] is PDE1B (Homo sapiens, UniProt Q01064). The assay can be described thus: PDE1 inhibition assay (PDE1B). As to conditions: 15 nM tritium labelled cAMP, SPA. As for the experimental part: as §1
PDE1B, sequence (Q01064 whole entry): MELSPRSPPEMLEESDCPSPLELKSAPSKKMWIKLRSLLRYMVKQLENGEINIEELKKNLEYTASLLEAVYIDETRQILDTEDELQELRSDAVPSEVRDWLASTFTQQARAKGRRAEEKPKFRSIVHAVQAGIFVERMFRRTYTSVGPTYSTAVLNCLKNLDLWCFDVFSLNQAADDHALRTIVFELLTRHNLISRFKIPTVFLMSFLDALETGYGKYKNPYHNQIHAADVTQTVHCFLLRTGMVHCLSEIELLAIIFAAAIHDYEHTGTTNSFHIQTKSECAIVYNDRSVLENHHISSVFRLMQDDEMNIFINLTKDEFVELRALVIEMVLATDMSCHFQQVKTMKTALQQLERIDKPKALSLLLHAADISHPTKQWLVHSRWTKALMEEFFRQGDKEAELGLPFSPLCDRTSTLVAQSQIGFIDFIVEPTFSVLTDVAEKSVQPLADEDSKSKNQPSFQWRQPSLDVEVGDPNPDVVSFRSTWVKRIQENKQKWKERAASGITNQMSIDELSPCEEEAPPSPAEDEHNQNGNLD
Assay [3] deals with PDE1C (Homo sapiens, UniProt Q14123). Put plainly: PDE1 inhibition assay (PDE1C). As to conditions: 15 nM tritium labelled cAMP, SPA. As for the experimental part: as §1
PDE1C, sequence (Q14123 whole entry): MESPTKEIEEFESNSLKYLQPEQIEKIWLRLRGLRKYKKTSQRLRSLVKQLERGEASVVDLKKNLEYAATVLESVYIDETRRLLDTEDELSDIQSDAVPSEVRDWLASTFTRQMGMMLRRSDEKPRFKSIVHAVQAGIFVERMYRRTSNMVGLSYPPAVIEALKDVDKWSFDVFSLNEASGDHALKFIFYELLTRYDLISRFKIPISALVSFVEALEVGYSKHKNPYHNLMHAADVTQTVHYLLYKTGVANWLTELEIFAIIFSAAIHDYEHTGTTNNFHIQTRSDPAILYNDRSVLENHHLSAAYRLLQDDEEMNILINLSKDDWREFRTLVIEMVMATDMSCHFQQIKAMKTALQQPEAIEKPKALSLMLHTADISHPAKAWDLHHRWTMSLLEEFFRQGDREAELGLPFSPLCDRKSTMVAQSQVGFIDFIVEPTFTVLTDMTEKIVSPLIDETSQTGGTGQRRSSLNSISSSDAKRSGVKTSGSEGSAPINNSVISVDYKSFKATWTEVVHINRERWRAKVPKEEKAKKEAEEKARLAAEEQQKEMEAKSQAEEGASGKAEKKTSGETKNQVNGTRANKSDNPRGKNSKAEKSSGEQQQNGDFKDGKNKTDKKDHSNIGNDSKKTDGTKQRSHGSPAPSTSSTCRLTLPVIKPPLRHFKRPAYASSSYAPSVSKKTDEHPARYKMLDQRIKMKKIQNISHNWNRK
For assay [4], the target named is PDE9 (Homo sapiens, UniProt O76083). Put plainly: PDE9 inhibition assay. As to conditions: for inhibition at 10 µM / PDE9 Inhibition at 10 μM (%): 10 μM of inhibitor. The protocol:
A PDE9 assay may for example, be performed as follows: The assay is performed in 60 μL samples containing a fixed amount of the relevant PDE enzyme (sufficient to convert 20-25% of the cyclic nucleotide substrate), a buffer (50 mM HEPES pH 7.6; 10 mM MgCl2; 0.02% Tween20), 0.1 mg/ml BSA, 225 pCi of ^3H-labelled cyclic nucleotide substrate, tritium labeled cAMP to a final concentration of 5 nM and varying amounts of inhibitors. Reactions are initiated by addition of the cyclic nucleotide substrate, and reactions are allowed to proceed for one hr at room temperature before being terminated through mixing with 15 μL 8 mg/mL yttrium silicate SPA beads (Amersham). The beads are allowed to settle for one hr in the dark before the plates are counted in a Wallac 1450 Microbeta counter. The measured signal can be converted to activity relative to an uninhibited control (100%) and IC50 values can be calculated using the Xlfit extension to EXCEL.
In the context of the present invention the assay was performed in 60 μL assay buffer (50 mM HEPES pH 7.6; 10 mM MgCl2; 0.02% Tween20) containing enough PDE9 to convert 20-25% of 10 nM ^3H-cAMP, and […] 10 μM of inhibitor. Following 1 hr incubation the reactions were terminated by addition of 15 μL 8 mg/mL yttrium silicate SPA beads (Amersham). The beads were allowed to settle for one hr in the dark before the plates were counted in a Wallac 1450 Microbeta counter.

PDE9, sequence (O76083 whole entry): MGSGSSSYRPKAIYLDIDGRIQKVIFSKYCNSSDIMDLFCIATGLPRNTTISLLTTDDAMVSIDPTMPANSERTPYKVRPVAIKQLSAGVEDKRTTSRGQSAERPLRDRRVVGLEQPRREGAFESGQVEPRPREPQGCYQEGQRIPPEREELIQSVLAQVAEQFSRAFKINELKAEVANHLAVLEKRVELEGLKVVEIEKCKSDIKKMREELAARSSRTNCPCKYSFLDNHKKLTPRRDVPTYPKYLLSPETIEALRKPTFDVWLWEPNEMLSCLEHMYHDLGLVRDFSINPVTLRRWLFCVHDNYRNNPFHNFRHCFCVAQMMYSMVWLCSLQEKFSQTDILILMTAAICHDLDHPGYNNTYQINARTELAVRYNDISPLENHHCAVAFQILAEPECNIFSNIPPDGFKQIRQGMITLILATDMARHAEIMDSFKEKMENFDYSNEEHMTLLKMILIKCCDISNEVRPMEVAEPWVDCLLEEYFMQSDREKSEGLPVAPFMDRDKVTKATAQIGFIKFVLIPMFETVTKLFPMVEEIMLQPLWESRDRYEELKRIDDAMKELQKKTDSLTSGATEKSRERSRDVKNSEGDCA
PDE1A, sequence (P54750 whole entry): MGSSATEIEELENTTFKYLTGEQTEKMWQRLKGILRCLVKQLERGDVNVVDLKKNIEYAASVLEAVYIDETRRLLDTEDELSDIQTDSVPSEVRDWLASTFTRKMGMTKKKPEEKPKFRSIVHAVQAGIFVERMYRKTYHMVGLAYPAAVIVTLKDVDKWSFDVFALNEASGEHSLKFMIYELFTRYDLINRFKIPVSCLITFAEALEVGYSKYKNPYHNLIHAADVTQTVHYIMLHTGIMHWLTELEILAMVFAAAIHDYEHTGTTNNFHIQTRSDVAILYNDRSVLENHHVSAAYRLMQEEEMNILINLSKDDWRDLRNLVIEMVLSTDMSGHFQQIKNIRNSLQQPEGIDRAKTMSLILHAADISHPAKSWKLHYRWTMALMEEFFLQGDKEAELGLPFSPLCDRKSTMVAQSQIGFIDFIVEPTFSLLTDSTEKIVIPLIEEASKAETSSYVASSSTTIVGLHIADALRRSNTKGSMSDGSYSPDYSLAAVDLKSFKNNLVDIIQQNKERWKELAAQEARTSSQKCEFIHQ

Consider `Cn1c(Cc2ccc(-c3cccc(F)n3)cc2)cn2c(C3CCOC3)ncc2c1=O` (single isomer, unassigned; isomer 1) [Example 27, 6-(4-(6-fluoropyridin-2-yl)benzyl)-7-methyl-3-(tetrahydrofuran-3-yl)imidazo[1,5-a]pyrazin-8(7H)-one, Isomer 1], for which the IC50 came out at 57 nM in assay [1], 16 nM in assay [2] and 96 nM in assay [3]. The inhibition at 10 µM in assay [4] worked out at 4%.

`CC1OCCC1c1ncc2c(=O)n(C)c(Cc3ccc(-c4cccc(F)n4)cc3)cn12` (single isomer, unassigned; isomer 1) [Example 29, 6-(4-(6-fluoropyridin-2-yl)benzyl)-7-methyl-3-(2-methyltetrahydrofuran-3-yl)imidazo[1,5-a]pyrazin-8(7H)-one, Isomer 1]: the IC50 is 61 nM in assay [1], 24 nM in assay [2] and 104 nM in assay [3]. Further, in assay [4], the “PDE9 Inhibition at 10 μM (%)” value amounted to 4%.

Take `Cn1c(Cc2ccc(-c3cccc(F)n3)cc2)cn2c(C3CCOC3)ncc2c1=O` (single isomer, unassigned; isomer 2) [Example 28, 6-(4-(6-fluoropyridin-2-yl)benzyl)-7-methyl-3-(tetrahydrofuran-3-yl)imidazo[1,5-a]pyrazin-8(7H)-one, Isomer 2]: the figures for the IC50 in assay [1], in assay [2] and in assay [3] were 71 nM, 26 nM and 111 nM, respectively. In assay [4], the “PDE9 Inhibition at 10 μM (%)” value was 6%.

On to `CC1OCCC1c1ncc2c(=O)n(C)c(Cc3ccc(-c4cccc(F)n4)cc3)cn12` (single isomer, unassigned; isomer 2) [Example 30, 6-(4-(6-fluoropyridin-2-yl)benzyl)-7-methyl-3-(2-methyltetrahydrofuran-3-yl)imidazo[1,5-a]pyrazin-8(7H)-one, Isomer 2], for which the IC50 worked out at 70 nM in assay [1], 71 nM in assay [2] and 148 nM in assay [3]. For the same compound, the “PDE9 Inhibition at 10 μM (%)” value in assay [4] was −2%.

With `CC1OCCC1c1ncc2c(=O)n(C)c(Cc3ccc(-c4cccc(F)n4)cc3)cn12` (single isomer, unassigned; isomer 3) [Example 31, 6-(4-(6-fluoropyridin-2-yl)benzyl)-7-methyl-3-(2-methyltetrahydrofuran-3-yl)imidazo[1,5-a]pyrazin-8(7H)-one, Isomer 3], the IC50 was 18 nM in assay [1], 4 nM in assay [2] and 45 nM in assay [3]. The “PDE9 Inhibition at 10 μM (%)” value in assay [4] amounted to 10%.

Turning to `CC1OCCC1c1ncc2c(=O)n(C)c(Cc3ccc(-c4cccc(F)n4)cc3)cn12` (single isomer, unassigned; isomer 4) [Example 32, 6-(4-(6-fluoropyridin-2-yl)benzyl)-7-methyl-3-(2-methyltetrahydrofuran-3-yl)imidazo[1,5-a]pyrazin-8(7H)-one, Isomer 4], the IC50 came out at 5.8 nM in assay [1], 1.3 nM in assay [2] and 9.2 nM in assay [3]. Further, the “PDE9 Inhibition at 10 μM (%)” value in assay [4] is given as 5%.

With `Cc1cccc(-c2ccc(Cc3cc4c(cnn4C4CCOCC4)c(=O)n3C)cc2)n1` [Example 1, 5-methyl-6-[[4-(6-methyl-2-pyridyl)phenyl]methyl]-1-tetrahydropyran-4-yl-pyrazolo[4,3-c]pyridin-4-one], the IC50 in assay [1] was 150 nM; in assay [2] it was 32 nM; in assay [3], 220 nM. In addition, the inhibition at 10 µM in assay [4] was determined as 10%.

For `Cn1c(Cc2ccc(-c3ccccn3)cc2)nc2c(cnn2C2CCOCC2)c1=O` [Example 2, 5-methyl-6-[[4-(2-pyridyl)phenyl]methyl]-1-tetrahydropyran-4-yl-pyrazolo[3,4-d]pyrimidin-4-one], the figures for the IC50 in assay [1], in assay [2] and in assay [3] were 390 nM, 92 nM and 530 nM, respectively. The inhibition at 10 µM in assay [4] was 5%.

Turning to `Cc1cccc(-c2ccc(Cc3nc4c(cnn4C4CCOCC4)c(=O)n3C)cc2)n1` [Example 3, 5-methyl-6-[[4-(6-methyl-2-pyridyl)phenyl]methyl]-1-tetrahydropyran-4-yl-pyrazolo[3,4-d]pyrimidin-4-one], the IC50 amounted to 350 nM in assay [1], 93 nM in assay [2] and 660 nM in assay [3]. Also, the inhibition at 10 µM in assay [4] is 25%.

Consider `Cn1c(Cc2ccc(-c3cccc(F)n3)cc2)nc2c(cnn2C2CCOCC2)c1=O` [Example 4, 6-[[4-(6-fluoro-2-pyridyl)phenyl]methyl]-5-methyl-1-tetrahydropyran-4-yl-pyrazolo[3,4-d]pyrimidin-4-one], for which the IC50 is 180 nM in assay [1], 57 nM in assay [2] and 2100 nM in assay [3]. For the same compound, the inhibition at 10 µM in assay [4] was 17%.

Take `Cn1c(Cc2ccc(-c3cccc(F)n3)cc2)cc2c(cnn2C2CCOCC2)c1=O` [Example 5, 6-[[4-(6-fluoro-2-pyridyl)phenyl]methyl]-5-methyl-1-tetrahydropyran-4-yl-pyrazolo[4,3-c]pyridin-4-one]: the IC50 in assay [1] came out at 120 nM; in assay [2], 20 nM; in assay [3], 190 nM. The inhibition at 10 µM in assay [4] came to 3%.

For the compound `Cn1c(Cc2ccc(-c3ccccn3)cc2)cc2c(cnn2C2CCOCC2)c1=O` [Example 6, 5-methyl-6-[[4-(2-pyridyl)phenyl]methyl]-1-tetrahydropyran-4-yl-pyrazolo[4,3-c]pyridin-4-one], the results for the IC50 in assay [1], in assay [2] and in assay [3] were 160 nM, 25 nM and 240 nM, respectively. Further, in assay [4], the inhibition at 10 µM was found to be 4%.

On to `COc1ccc(Cn2c(CN3CCN(c4ccccn4)CC3)cn3c(C4CCOCC4)ncc3c2=O)cc1` [Example 7, 7-[(4-methoxyphenyl)methyl]-6-[[4-(2-pyridyl)piperazin-1-yl]methyl]-3-tetrahydropyran-4-yl-imidazo[1,5-a]pyrazin-8-one], for which the IC50 in assay [1] was determined as 88 nM; in assay [2], 13 nM; in assay [3], 190 nM. In assay [4], the inhibition at 10 µM was 19%.

Regarding `COc1ccc(Cn2c(CN3CCN(c4ccccc4)CC3)cn3c(C4CCOCC4)ncc3c2=O)cc1` [Example 8, 7-[(4-methoxyphenyl)methyl]-6-[(4-phenylpiperazin-1-yl)methyl]-3-tetrahydropyran-4-yl-imidazo[1,5-a]pyrazin-8-one], the IC50 worked out at 59 nM in assay [1], 9.8 nM in assay [2] and 140 nM in assay [3]. The inhibition at 10 µM in assay [4] is 11%.

For the compound `COc1ccc(Cn2c(Cc3ccc(-c4ccccn4)cc3)cn3c(C4CCOCC4)ncc3c2=O)cc1` [Example 9, 7-[(4-methoxyphenyl)methyl]-6-[[4-(2-pyridyl)phenyl]methyl]-3-tetrahydropyran-4-yl-imidazo[1,5-a]pyrazin-8-one], the values for the IC50 in assay [1], in assay [2] and in assay [3] were 0.29 nM, 0.19 nM and 0.38 nM, respectively. Besides, the inhibition at 10 µM in assay [4] came out at 39%.

With `O=c1[nH]c(Cc2ccc(-c3ccccn3)cc2)cn2c(C3CCOCC3)ncc12` [Example 10, 6-[[4-(2-pyridyl)phenyl]methyl]-3-tetrahydropyran-4-yl-7H-imidazo[1,5-a]pyrazin-8-one], the IC50 came out at 17 nM in assay [1], 6 nM in assay [2], 22 nM in assay [3] and 180 nM in assay [4] (printed in the PDE9 inhibition column).

For the compound `Cn1c(Cc2ccc(-c3ccccn3)cc2)cn2c(C3CCOCC3)ncc2c1=O` [Example 11, 7-methyl-6-[[4-(2-pyridyl)phenyl]methyl]-3-tetrahydropyran-4-yl-imidazo[1,5-a]pyrazin-8-one], the figures for the IC50 in assay [1], in assay [2] and in assay [3] were 30 nM, 3.5 nM and 120 nM, respectively. In assay [4], the inhibition at 10 µM was -10%.

`CCn1c(Cc2ccc(-c3ccccn3)cc2)cn2c(C3CCOCC3)ncc2c1=O` [Example 12, 7-ethyl-6-[[4-(2-pyridyl)phenyl]methyl]-3-tetrahydropyran-4-yl-imidazo[1,5-a]pyrazin-8-one]: the results for the IC50 in assay [1], in assay [2] and in assay [3] were 12 nM, 3.1 nM and 26 nM, respectively. The inhibition at 10 µM in assay [4] was determined as 4%.

In the case of `Cc1cccc(-c2ccc(Cc3cn4c(C5CCOCC5)ncc4c(=O)n3C)cc2)n1` [Example 13, 7-methyl-6-[[4-(6-methyl-2-pyridyl)phenyl]methyl]-3-tetrahydropyran-4-yl-imidazo[1,5-a]pyrazin-8-one], the IC50 in assay [1] came to 81 nM; in assay [2] it was 14 nM; in assay [3], 80 nM. Further, the inhibition at 10 µM in assay [4] was found to be 18%.

For the origin of these results see patent US10633382B2, “Imidazopyrazinones, pyrazolopyrimidinones and pyrazolopyridinones as PDE1 inhibitors” (H. Lundbeck A/S, priority 2016, dated 2020).
